Experimental data published in PubChem BioAssay AID256 (DTP/NCI, 2004).
Toxic doses and inconclusive results are not listed.

System: CD2F1 mice, L1210 leukemia ip, survival T/C
Assay: NCI In Vivo Anticancer Drug Screen. Data for tumor model L1210 Leukemia (intraperitoneal) in CD2F1 (CDF1) mice
Conditions: higher = longer survival
Procedure, shortened: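 Each value reflects a quotient of treated over vehicle control outcomes in mice with a transplanted tumor.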

[1] = endpoint: mean survival time, dose: 50.0 mg/kg/injection, schedule: Q01DX009 (ip), vehicle: saline with Tween-80
[2] = endpoint: mean survival time, dose: 100.0 mg/kg/injection, schedule: Q01DX009 (ip), vehicle: saline with Tween-80
[3] = endpoint: mean survival time, dose: 200.0 mg/kg/injection, schedule: Q01DX009 (ip), vehicle: saline with Tween-80
[4] = endpoint: mean survival time, dose: 400.0 mg/kg/injection, schedule: Q01DX009 (ip), vehicle: saline with Tween-80
[5] = endpoint: mean survival time, dose: 25.0 mg/kg/injection, schedule: Q01DX009 (ip), vehicle: water
[6] = endpoint: mean survival time, dose: 50.0 mg/kg/injection, schedule: Q01DX009 (ip), vehicle: water
[7] = endpoint: mean survival time, dose: 100.0 mg/kg/injection, schedule: Q01DX009 (ip), vehicle: saline
[8] = endpoint: mean survival time, dose: 200.0 mg/kg/injection, schedule: Q01DX009 (ip), vehicle: saline
[9] = endpoint: mean survival time, dose: 400.0 mg/kg/injection, schedule: Q01DX009 (ip), vehicle: saline
[10] = endpoint: mean survival time, dose: 100.0 mg/kg/injection, schedule: Q01DX001 (ip), vehicle: saline with Tween-80
[11] = endpoint: mean survival time, dose: 50.0 mg/kg/injection, schedule: Q01DX009 (ip), vehicle: Klucel (hydroxypropylcellulose) (HPC)
[12] = endpoint: mean survival time, dose: 100.0 mg/kg/injection, schedule: Q01DX009 (ip), vehicle: Klucel (hydroxypropylcellulose) (HPC)
[13] = endpoint: mean survival time, dose: 200.0 mg/kg/injection, schedule: Q01DX009 (ip), vehicle: Klucel (hydroxypropylcellulose) (HPC)
[14] = endpoint: mean survival time, dose: 200.0 mg/kg/injection, schedule: Q01DX001 (ip), vehicle: saline with Tween-80
[15] = endpoint: mean survival time, dose: 400.0 mg/kg/injection, schedule: Q01DX001 (ip), vehicle: saline with Tween-80

C/C=C\c1ccc(OCCOC(=O)Nc2ccc(Cl)cc2OC)c(OC)c1
T/C [1]: 89 % of control
T/C [2]: 89 % of control
T/C [3]: 93 % of control

C1=CN2CCCN3C=CC=c4ccc(c2c43)=C1
T/C (endpoint: mean survival time, dose: 7.5 mg/kg/injection, schedule: Q01DX001 (ip), vehicle: saline): 101 % of control
T/C (endpoint: mean survival time, dose: 7.5 mg/kg/injection, schedule: Q04DX003 (ip), vehicle: saline): 97 % of control
T/C (endpoint: mean survival time, dose: 15.0 mg/kg/injection, schedule: Q01DX001 (ip), vehicle: saline): 95 % of control
T/C (endpoint: mean survival time, dose: 15.0 mg/kg/injection, schedule: Q04DX003 (ip), vehicle: saline): 105 % of control
T/C (endpoint: mean survival time, dose: 30.0 mg/kg/injection, schedule: Q01DX001 (ip), vehicle: saline): 95 % of control
T/C (endpoint: mean survival time, dose: 30.0 mg/kg/injection, schedule: Q04DX003 (ip), vehicle: saline): 97 % of control

CCSc1n[nH]c(=O)nc1SC
T/C (endpoint: mean survival time, dose: 75.0 mg/kg/injection, schedule: Q01DX001 (ip), vehicle: saline): 98 % of control
T/C (endpoint: mean survival time, dose: 150.0 mg/kg/injection, schedule: Q01DX001 (ip), vehicle: saline): 96 % of control
T/C (endpoint: mean survival time, dose: 300.0 mg/kg/injection, schedule: Q01DX001 (ip), vehicle: saline): 97 % of control

O=[N+]([O-])c1ccc(N=C(Cl)c2ccccc2)cc1
T/C [2]: 101 % of control
T/C [3]: 104 % of control
T/C [4]: 104 % of control

Clc1nc(Cl)c(Nc2ccn[nH]2)nc1Cl
T/C (endpoint: mean survival time, dose: 100.0 mg/kg/injection, schedule: Q04DX003 (ip), vehicle: saline sonified): 100 % of control
T/C (endpoint: mean survival time, dose: 200.0 mg/kg/injection, schedule: Q04DX003 (ip), vehicle: saline sonified): 98 % of control
T/C (endpoint: mean survival time, dose: 400.0 mg/kg/injection, schedule: Q04DX003 (ip), vehicle: saline sonified): 95 % of control

CC(C)(CCC(C)(C)NCCCN)NCCCN
T/C (endpoint: mean survival time, dose: 12.5 mg/kg/injection, schedule: Q01DX009 (ip), vehicle: water): 94 % of control
T/C [5]: 97 % of control
T/C [6]: 109 % of control

OC1CC2C=CC1CC2 (stereo unspecified)
T/C [7]: 97 % of control
T/C [8]: 94 % of control
T/C [9]: 100 % of control

COc1c(O)ccc(/C=C2/SC(=S)NC2=O)c1[N+](=O)[O-]
T/C [10]: 101 % of control

O=C1C=CC(=O)C1=Cc1ccc(O)cc1
T/C (endpoint: mean survival time, dose: 5.0 mg/kg/injection, schedule: Q04DX002 (ip), vehicle: saline with Tween-80): 100 % of control
T/C (endpoint: mean survival time, dose: 10.0 mg/kg/injection, schedule: Q04DX002 (ip), vehicle: saline with Tween-80): 103 % of control

Nc1nc2ncccc2[nH]1
T/C (endpoint: mean survival time, dose: 12.5 mg/kg/injection, schedule: Q01DX005 (ip), vehicle: other): 108 % of control
T/C (endpoint: mean survival time, dose: 25.0 mg/kg/injection, schedule: Q01DX005 (ip), vehicle: other): 107 % of control
T/C (endpoint: mean survival time, dose: 50.0 mg/kg/injection, schedule: Q01DX005 (ip), vehicle: other): 104 % of control
T/C (endpoint: mean survival time, dose: 100.0 mg/kg/injection, schedule: Q01DX005 (ip), vehicle: other): 101 % of control
T/C (endpoint: mean survival time, dose: 200.0 mg/kg/injection, schedule: Q01DX005 (ip), vehicle: other): 103 % of control

O=CNC(Cc1ccc(O)cc1)C(=O)O (stereo unspecified)
T/C [7]: 97 % of control
T/C [8]: 94 % of control
T/C [9]: 89 % of control

COc1cc(Cl)c(CCBr)cc1OC
T/C [11]: 104 % of control
T/C [12]: 89 % of control
T/C [13]: 96 % of control

O=C(COc1cccc(Cl)c1)NCc1ccccc1NC(=O)Nc1cccc(S(=O)(=O)F)c1
T/C [10]: 88 % of control
T/C [14]: 89 % of control
T/C [15]: 94 % of control

Cc1cc(C)c(S(=O)(=O)n2ccnc2)c(C)c1
T/C [11]: 94 % of control
T/C [12]: 94 % of control
T/C [13]: 105 % of control

CC(=O)Nc1ccc(CN(C)N=Nc2ccc(C(=O)O)cc2)cc1
T/C [5]: 95 % of control
T/C [6]: 97 % of control
T/C (endpoint: mean survival time, dose: 100.0 mg/kg/injection, schedule: Q01DX009 (ip), vehicle: water): 106 % of control
T/C (endpoint: mean survival time, dose: 200.0 mg/kg/injection, schedule: Q01DX009 (ip), vehicle: water): 86 % of control
T/C (endpoint: mean survival time, dose: 400.0 mg/kg/injection, schedule: Q01DX009 (ip), vehicle: water): 95 % of control

Cc1ccc(S(=O)(=O)NNC(=O)C2(C)CC2(C)C(=O)O)cc1 (stereo unspecified)
T/C [2]: 96 % of control
T/C [3]: 96 % of control
T/C [4]: 100 % of control

NC(=O)c1[nH]cnc1/N=N/N(CCF)CCF
T/C (endpoint: mean survival time, dose: 8.8 mg/kg/injection, schedule: Q01DX001 (ip), vehicle: other): 121 % of control
T/C (endpoint: mean survival time, dose: 30.0 mg/kg/injection, schedule: Q01DX001 (ip), vehicle: other): 158 % of control

O=C(O)C1=CCCc2ccc(Br)cc21
T/C (endpoint: median survival time, dose: 25.0 mg/kg/injection, schedule: Q04DX003 (ip), vehicle: saline with Tween-80): 100 % of control
T/C (endpoint: median survival time, dose: 50.0 mg/kg/injection, schedule: Q04DX003 (ip), vehicle: saline with Tween-80): 100 % of control
T/C (endpoint: median survival time, dose: 100.0 mg/kg/injection, schedule: Q04DX003 (ip), vehicle: saline with Tween-80): 88 % of control
T/C (endpoint: median survival time, dose: 200.0 mg/kg/injection, schedule: Q04DX003 (ip), vehicle: saline with Tween-80): 88 % of control

CCC1CCC(NC(C)=O)CC1 (stereo unspecified)
T/C [10]: 96 % of control

C/C=C/C(=O)NCC(C(C)C)/[N+]([O-])=N/O (stereo unspecified)
T/C (endpoint: mean survival time, dose: 6.25 mg/kg/injection, schedule: Q01DX009 (ip), vehicle: saline with Tween-80): 94 % of control
T/C (endpoint: mean survival time, dose: 12.5 mg/kg/injection, schedule: Q01DX009 (ip), vehicle: saline with Tween-80): 103 % of control
T/C (endpoint: mean survival time, dose: 25.0 mg/kg/injection, schedule: Q01DX009 (ip), vehicle: saline with Tween-80): 94 % of control

C=CCOC(c1ccc2c(c1)OCO2)C(C)Br (stereo unspecified)
T/C [10]: 94 % of control
T/C [14]: 94 % of control
T/C [15]: 94 % of control

COC(=O)C1CN=NC1C(=O)OC (stereo unspecified)
T/C [2]: 95 % of control
T/C [3]: 95 % of control
T/C [4]: 91 % of control

NC(=O)C1CCCCC1C(N)=O (stereo unspecified)
T/C [2]: 105 % of control
T/C [3]: 105 % of control
T/C [4]: 103 % of control

CC(C)(CN(Cc1ccccc1)Cc1ccccc1)[N+](=O)[O-]
T/C [1]: 98 % of control
T/C [2]: 98 % of control
T/C [3]: 90 % of control

CCCCC(NC(=O)CCl)C(=O)O (stereo unspecified)
T/C (endpoint: mean survival time, dose: 100.0 mg/kg/injection, schedule: Q04DX002 (ip), vehicle: saline with Tween-80): 95 % of control
T/C (endpoint: mean survival time, dose: 200.0 mg/kg/injection, schedule: Q04DX002 (ip), vehicle: saline with Tween-80): 103 % of control

CNC(=O)NC1CCC(C)CC1 (stereo unspecified)
T/C (endpoint: mean survival time, dose: 100.0 mg/kg/injection, schedule: Q04DX003 (ip), vehicle: saline): 98 % of control
T/C (endpoint: mean survival time, dose: 200.0 mg/kg/injection, schedule: Q04DX003 (ip), vehicle: saline): 96 % of control
T/C (endpoint: mean survival time, dose: 400.0 mg/kg/injection, schedule: Q04DX003 (ip), vehicle: saline): 96 % of control

Nc1nc(N)c2cc(CCc3ccc(C(=O)NC(CCC(=O)O)C(=O)O)cc3)ccc2n1 (stereo unspecified)
T/C (endpoint: mean survival time, dose: 0.31 mg/kg/injection, schedule: Q01DX009 (ip), vehicle: Klucel (hydroxypropylcellulose) (HPC)): 119 % of control

CCOC(=N)CCCl
T/C (endpoint: mean survival time, dose: 100.0 mg/kg/injection, schedule: Q04DX003 (ip), vehicle: saline with Tween-80): 106 % of control
T/C (endpoint: mean survival time, dose: 200.0 mg/kg/injection, schedule: Q04DX003 (ip), vehicle: saline with Tween-80): 101 % of control
T/C (endpoint: mean survival time, dose: 400.0 mg/kg/injection, schedule: Q04DX003 (ip), vehicle: saline with Tween-80): 97 % of control

O=C(O)c1ccc(Cl)c(N=C/C=C/c2ccccc2)c1
T/C (endpoint: mean survival time, dose: 75.0 mg/kg/injection, schedule: Q04DX003 (ip), vehicle: saline): 97 % of control
T/C (endpoint: mean survival time, dose: 150.0 mg/kg/injection, schedule: Q04DX003 (ip), vehicle: saline): 100 % of control
T/C (endpoint: mean survival time, dose: 300.0 mg/kg/injection, schedule: Q04DX003 (ip), vehicle: saline): 100 % of control
